# From US20100311726A1, “REDUCTION OF BETA-AMYLOID LEVELS BY TREATMENT WITH THE SMALL MOLECULE DIFFERENTIATION-INDUCING FACTOR” (priority 2007, published 2010)
# Legend:
# secreted APP and Aβ = assay: Secreted APP and total Aβ in conditioned media by western blot; assay type: cell-based, human; conditions: CHO-7W, 30 μM, antibody 6E10
# Protocol: (§1) The levels of secreted Aβ from CHO-7W cells stably overexpressing APP^751 and CHO-CAB cells that overexpress APP^751 and human BACE1 was quantified by ELISA and viewed by western blot using the monoclonal anti-APP antibody (6E10) that recognizes residues 1-17 of Aβ. Cells (5×10^5) were deposited into 6-well tissue culture dishes in triplicate and allowed to settle and grow for 24 hours. At this time, the media was aspirated and the cells were washed 2× in warm PBS. Fresh media (2 mL) and media supplemented with vehicle or DIF-1 was added to each well. […] Since DIF-1 exerts a cytostatic effect, the cell number was counted for all treatments upon removal of the conditioned media and used to normalize the levels of Aβ. […] The concentration of Aβ40 and Aβ42 was subsequently detected in triplicate using the β-Amyloid 1-40 or 1-42 Colorimetric ELISA kit (Biosource International, Inc.) according to the manufacturer's instructions.
# (§2) We then looked at what effect this had on the levels of secreted soluble APP and Aβ production. […] The conditioned media was analyzed using anti-APP antibody 6E10 in order to detect total βP levels and sαAPP levels since it recognizes the amino acids 1-17 of Aβ and thus cannot detect sβAPP. […] The blots were analyzed using a phosphorimager.
# CHO-7W cells = assay: Flow cytometry cell cycle distribution, CHO-7W; assay type: cell-based, Chinese Hamster; conditions: 25 μM
# Protocol: Naïve and CHO-7W cells were collected by trypsin/EDTA treatment and counted using a haemocytometer. The cells (1×10^5) were deposited into 10 cm tissue culture dishes containing fresh media and grown for 24 hours prior to DIF-1 treatment (25 μM). Cells were grown in the presence of DIF-1 for approximately 20 hours. Cells harvested by the trypsin/EDTA treatment were suspended in hypotonic fluorochrome solution containing 50 ug/ml of propidium iodide, 0.1% sodium citrate, and 0.1% Triton X-100. Cells (5×10^4) for each sample were analyzed for fluorescence using the Massachusetts General Hospital cytology core. Cell cycle distribution was compared between vehicle and DIF-1 treated nave CHO cells, and CHO-7W cells. The percentage of cells in G0/G1, S-phase and G2/M represents the mean cell number±the standard deviation from at least 3 separate experiments.
# CHO/APP cells were incubated with DIF-1 (25 μM) for the indicated periods and then harvested, fixed and stained with propidium iodide (PI) and fluorescence of nuclei was measured. Histogram peaks are labeled by phases. The percentages of cell number in the cell cycle phases are shown as means+/−S.E. of three independent experiments performed in duplicate. The effects of DIF-1 on CHO-7W cell growth is also a result of G0/G1 cell cycle block (50.1%±1.1) as measured by flow cytometry (FIG. 2B).
# Aβ42 = assay: Secreted Aβ42 sandwich ELISA of conditioned media; assay type: cell-based, human
# Protocol: as §1
# as §2, with “phosphorimager. […]” for “phosphorimager.”
smiles,measurement,setting,value
"CCCCCC(=O)c1c(O)c(Cl)c(OC)c(Cl)c1O [DIF-1, 1-[3,5-dichloro-2,6-dihydroxy-4-methoxyphenyl]-1-hexanone]",level of total Aβ in conditioned media by western blot,secreted APP and Aβ,reduced the level of total Aβ
same,level of total secreted APP in conditioned media,secreted APP and Aβ,reduced the level of total secreted APP
same,G0/G1 cell cycle block (percentage of cells),CHO-7W cells,50.1%±1.1
same,reduction of secreted Aβ42,"Aβ42; CHO-7W, 30 μM overnight",63.9±7.15%
same,reduction of secreted levels of Aβ42,Aβ42; conditioned media from either CHO-7W or CHO-CAB cells,66.9±2.6%
